Measurements from US20170081338A1, “SUBSTITUTED HETEROARYL COMPOUNDS AND METHODS OF USE” (Sunshine Lake Pharma Co., Ltd., priority 2015, published 2017).

Tests used:
[1] = Compound stability in human liver microsomes; type: in vitro ADME; details: pH 7.4; for half-life at 5 μM: human liver microsomes 0.5 mg protein/mL, compound 5 μM, NADPH, 37° C., read-out: Human T1/2; for CLint scaled at 5 μM: human liver microsomes, in vivo CLint extrapolated
Outline: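 Microsomes 0.5 mg protein/mL; cpd 5 μM; NADPH 1.0 mM; 100 mM phosphate pH 7.4; DMSO 0.05%; 37° C; duplicates. Timepoints 0–60 min, acetonitrile stop, LC/MS/MS. Data as % of zero-time; CLint extrapolated.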

[2] = biological target: T1, Aurora-A (h) (Homo sapiens, UniProt O14965); assay: Aurora-A (h) kinase assay; type: biochemical
T1 construct: purchased Millipore UK Ltd (contract assay service)
T1 sequence (O14965 1-403): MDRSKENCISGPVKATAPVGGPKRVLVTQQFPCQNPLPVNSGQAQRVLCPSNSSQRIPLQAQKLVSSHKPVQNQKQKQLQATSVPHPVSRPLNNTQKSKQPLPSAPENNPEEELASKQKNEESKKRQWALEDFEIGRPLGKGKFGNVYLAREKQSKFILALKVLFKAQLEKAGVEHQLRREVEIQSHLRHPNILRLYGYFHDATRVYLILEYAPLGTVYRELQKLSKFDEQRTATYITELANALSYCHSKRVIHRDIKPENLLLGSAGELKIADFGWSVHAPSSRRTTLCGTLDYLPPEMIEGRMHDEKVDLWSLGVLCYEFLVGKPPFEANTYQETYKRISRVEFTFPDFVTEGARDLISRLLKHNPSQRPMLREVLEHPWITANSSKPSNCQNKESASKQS
Outline: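 Human Aurora-A incubated with 200 μM Kemptide, 10 mM Mg acetate, [γ-33P]ATP in 8 mM MOPS pH 7.0 for 40 min at room temperature; stopped with phosphoric acid, spotted on P30 filtermat and scintillation counted. IC50 from 10-point ½-log dilution series.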

[3] = biological target: T2, Aurora-B (h) (Homo sapiens, UniProt Q96GD4); assay: Aurora-B (h) kinase assay; type: biochemical
T2 construct: purchased Millipore UK Ltd (contract assay service)
T2 sequence (Q96GD4 whole entry): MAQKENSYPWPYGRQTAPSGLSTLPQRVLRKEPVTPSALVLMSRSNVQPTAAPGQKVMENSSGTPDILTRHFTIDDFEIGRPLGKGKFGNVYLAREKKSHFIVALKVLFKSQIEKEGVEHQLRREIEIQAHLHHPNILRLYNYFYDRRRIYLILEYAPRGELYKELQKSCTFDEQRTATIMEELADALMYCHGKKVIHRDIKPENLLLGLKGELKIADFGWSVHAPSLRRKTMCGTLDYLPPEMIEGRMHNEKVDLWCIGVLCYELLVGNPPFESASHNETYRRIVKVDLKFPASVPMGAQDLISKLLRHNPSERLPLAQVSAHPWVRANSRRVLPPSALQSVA
Description: Kinase assays can be performed by measurement of incorporation of γ-^33P ATP into immobilized myelin basic protein (MBP). High binding white 384 well plates (Greiner) are coated with MBP (Sigma #M-1891) by incubation of 60 μL/well of 20 μg/mL MBP in Tris-buffered saline (TBS; 50 mM Tris pH 8.0, 138 mM NaCl, 2.7 mM KCl) for 24 h at 4° C. Plates are washed 3× with 100 μL TBS. Kinase reactions are carried out in a total volume of 34 μL in kinase buffer (according to the need to make, for example, 5 mM Hepes pH 7.6, 15 mM NaCl, 0.01% bovine gamma globulin (Sigma #1-5506), 10 mM MgCl2, 1 mM DTT, 0.02% TritonX-100). Compound dilutions are performed in DMSO and added to assay wells to a final DMSO concentration of 1%. Each data point is measured in duplicate, and at least two duplicate assays are performed for each individual compound determination. Enzyme is added to final concentrations of 10 nM or 20 nM, for example. A mixture of unlabeled ATP and γ-^33P ATP is added to start the reaction (2×10^6 cpm of γ-^33P ATP per well (3000 Ci/mmole) and 10 μM unlabeled ATP, typically. The reactions are carried out for 1 h at room temperature with shaking. Plates are washed 7× with TBS, followed by the addition of 50 µL/well scintillation fluid (Wallac). Plates are read using a Wallac Trilux counter. This is only one format of such assays; various other formats are possible, as known to one skilled in the art.
The above assay procedure can be used to determine the IC50 for inhibition and/or the inhibition constant, Ki. The IC50 is defined as the concentration of compound required to reduce the enzyme activity by 50% under the condition of the assay. The IC50 value is estimated by preparing a 10 point curve using a 1/2 log dilution series (for example, a typical curve may be prepared using the following compound concentrations: 3 μM, 1 μM, 0.3 μM, 0.1 μM, 0.03 μM, 0.01 μM, 0.003 μM, 0.001 μM, 0.0003 μM and 0 μM).
Aurora-B (h) is incubated with 8 mM MOPS pH 7.0, 0.2 mM EDTA, 30 μM AKRRRLSSLRA, 10 mM MgAcetate and [γ-^33PATP] (specific activity approx. 500 cpm/pmol, concentration as required). The reaction is initiated by the addition of the MgATP mix. After incubation for 40 minutes at room temperature, the reaction is stopped by the addition of a 3% phosphoric acid solution. 10 μL of the reaction is then spotted onto a P30 filtermat and washed three times for 5 minutes in 75 mM phosphoric acid and once in methanol prior to drying and scintillation counting.
The kinase assays described herein were performed at Millipore UK Ltd, Dundee Technology Park, Dundee DD2 1SW, UK.

Compound | half-life at 5 μM [1] | CLint scaled at 5 μM [1] | IC50 [2] | IC50 [3]
CC(C)CS(=O)(=O)N[C@H]1COC2C1OC[C@H]2Nc1nc(Nc2cnn(C)c2)ncc1Cl (stereo partly drawn) [Ex. 2, N-((3S,6R)-6-((5-chloro-2-((1-methyl-1H-pyrazol-4-yl)amino)pyrimidin-4-yl)amino)hexahydrofuro[3,2-b]furan-3-yl)-2-methylpropane-1-sulfonamide] | 37 min | 47 mL/min/kg | 20 nM | 29 nM
Cn1cc(Nc2ncc(Cl)c(N[C@@H]3COC4C3OC[C@@H]4NS(=O)(=O)CC3CC3)n2)cn1 (stereo partly drawn) [Ex. 25, N-((3S,6R)-6-((5-chloro-2-((1-methyl-1H-pyrazol-4-yl)amino)pyrimidin-4-yl)amino)hexahydrofuro[3,2-b]furan-3-yl)-1-cyclopropylmethanesulfonamide] | 83.4 min | 20.8 mL/min/kg | 5 nM | 24 nM
Cn1cc(Nc2ncc(Cl)c(N[C@@H]3COC4C3OC[C@@H]4NS(=O)(=O)CC(C)(C)C#N)n2)cn1 (stereo partly drawn) [Ex. 26, N-((3S,6R)-6-((5-chloro-2-((1-methyl-1H-pyrazol-4-yl)amino)pyrimidin-4-yl)amino)hexahydrofuro[3,2-b]furan-3-yl)-2-cyano-2-methylpropane-1-sulfonamide] | 33.6 min | 51.7 mL/min/kg | 6 nM | 11 nM
Cn1cc(Nc2ncc(Cl)c(N[C@@H]3COC4C3OC[C@@H]4NS(=O)(=O)CC(F)(F)F)n2)cn1 (stereo partly drawn) [Ex. 27, N-((3S,6R)-6-((5-chloro-2-((1-methyl-1H-pyrazol-4-yl)amino)pyrimidin-4-yl)amino)hexahydrofuro[3,2-b]furan-3-yl)-2,2,2-trifluoroethanesulfonamide] | 190 min | 9.16 mL/min/kg | 39 nM | 8 nM
